Measured values as given in ChEMBL document CHEMBL1137463, “Discovery and structure-activity relationships of new steroidal compounds bearing a carboxy-terminal side chain as androgen receptor pure antagonists” (Bioorg Med Chem Lett, 2007).

Columns and labels:
Androgen receptor [1] = target: T1, Androgen receptor (Homo sapiens, UniProt P10275)
T1 sequence (P10275 whole entry): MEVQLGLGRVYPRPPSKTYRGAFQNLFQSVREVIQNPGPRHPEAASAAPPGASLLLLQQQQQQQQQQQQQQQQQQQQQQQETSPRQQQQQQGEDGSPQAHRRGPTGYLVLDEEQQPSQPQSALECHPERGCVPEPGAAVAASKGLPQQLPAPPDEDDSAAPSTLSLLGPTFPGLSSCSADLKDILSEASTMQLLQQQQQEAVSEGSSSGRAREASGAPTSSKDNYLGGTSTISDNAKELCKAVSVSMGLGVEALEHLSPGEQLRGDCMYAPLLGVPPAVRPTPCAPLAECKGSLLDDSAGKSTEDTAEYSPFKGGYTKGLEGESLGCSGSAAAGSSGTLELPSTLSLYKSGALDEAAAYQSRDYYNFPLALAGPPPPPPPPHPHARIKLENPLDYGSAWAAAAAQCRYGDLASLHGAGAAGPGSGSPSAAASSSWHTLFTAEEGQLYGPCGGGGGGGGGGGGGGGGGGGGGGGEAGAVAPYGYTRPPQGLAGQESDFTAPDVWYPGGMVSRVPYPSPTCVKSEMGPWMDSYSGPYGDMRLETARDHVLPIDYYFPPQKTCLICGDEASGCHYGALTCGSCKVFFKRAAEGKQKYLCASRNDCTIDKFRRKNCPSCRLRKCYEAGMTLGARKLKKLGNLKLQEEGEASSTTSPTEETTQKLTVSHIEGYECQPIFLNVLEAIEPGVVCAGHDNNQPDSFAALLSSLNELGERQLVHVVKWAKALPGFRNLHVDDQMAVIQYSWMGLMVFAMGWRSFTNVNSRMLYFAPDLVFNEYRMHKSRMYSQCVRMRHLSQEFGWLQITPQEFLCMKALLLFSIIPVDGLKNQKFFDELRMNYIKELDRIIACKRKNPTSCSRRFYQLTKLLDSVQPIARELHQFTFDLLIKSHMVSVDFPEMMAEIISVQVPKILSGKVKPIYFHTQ
Description: Antagonist activity at human androgen receptor expressed in HeLa cells assessed as inhibition of dihydrotestosterone induced transcriptional activity by reporter gene assay

[2] = target: T2, Androgen receptor (Homo sapiens) (UniProt P10275); conditions: HeLa
T2 sequence (whole entry): T1 sequence (P10275 whole entry)
Description: Agonist activity at human androgen receptor expressed in HeLa cells assessed as five times increase in transcriptional activity by reporter gene assay

Androgen receptor [3] = target: T1, Androgen receptor; assay: biochemical
Description: Displacement of [3H]mibolerone from human androgen receptor expressed in CHOK1 cells

Mus musculus [4] = assay: Inhibition of testosterone propionate-stimulated seminal vesicle weight gain in castrated mouse at 3 mg/body, sc; assay type: functional
Mus musculus [5] = assay: Inhibition of testosterone propionate-stimulated seminal vesicle weight gain in castrated mouse at 1 mg/body, sc; assay type: functional
Mus musculus [6] = assay: Inhibition of testosterone propionate-stimulated seminal vesicle weight gain in castrated mouse at 10 mg/body, sc; assay type: functional

Structure (SMILES)	IC50 (Androgen receptor [1]) [µM]	FI5 [2] [nM]	IC50 (Androgen receptor [3]) [µM]	Inhibition (Mus musculus [4]) [%]	Inhibition (Mus musculus [5]) [%]	Inhibition (Mus musculus [6]) [%]
C[C@]12CCC(=O)C=C1C[C@@H](CCCc1ccc(OCCCC(=O)O)cc1)[C@@H]1[C@@H]2CC[C@@]2(C)[C@H]1CC[C@]2(C)O	0.66	> 10000	0.43	–	–	–
C[C@]12CCC(=O)C=C1C[C@@H](CCCCc1cccc(OCCCCC(=O)O)c1)[C@@H]1[C@@H]2CC[C@@]2(C)[C@H]1CC[C@]2(C)O	–	> 10000	0.35	–	–	–
C[C@]12CCC(=O)C=C1C[C@@H](CCCc1ccc(OCCC(=O)O)cc1)[C@@H]1[C@@H]2CC[C@@]2(C)[C@H]1CC[C@]2(C)O	0.17	2500	0.3	–	–	–
C[C@]12CCC(=O)C[C@@H]1C[C@@H](CCCCCCCCCC(=O)O)[C@@H]1[C@@H]2CC[C@]2(C)[C@@H](O)CC[C@@H]12	0.92	120	0.35	–	–	–
C[C@]12CCC(=O)C=C1C[C@@H](CCCCc1cccc(OCCCC(=O)O)c1)[C@@H]1[C@@H]2CC[C@@]2(C)[C@H]1CC[C@]2(C)O	0.92	> 10000	0.67	–	–	–
C[C@]12CCC(=O)C[C@@H]1C[C@@H](CCCCCCCCC(CCCC(F)(F)C(F)(F)F)C(=O)O)[C@@H]1[C@@H]2CC[C@]2(C)[C@@H](O)CC[C@@H]12 (stereo not given in full)	> 10	13	0.41	–	–	–
CN(C)C(=O)CCCCCCC[C@@H]1C[C@H]2CC(=O)CC[C@]2(C)[C@H]2CC[C@]3(C)[C@@H](O)CC[C@H]3[C@H]12	0.19	> 10000	0.26	–	–	–
CC(C)(O)C(=O)Nc1ccc([N+](=O)[O-])c(C(F)(F)F)c1 [HYDROXYFLUTAMIDE]	–	1000	–	0.8	6.7	6.4
C[C@]12CCC(=O)C[C@@H]1C[C@@H](CCCCCCCC(=O)O)[C@@H]1[C@@H]2CC[C@]2(C)[C@@H](O)CC[C@@H]12	0.73	110	0.66	–	–	–
C[C@]12CCC(=O)C=C1C[C@@H](CCCCc1ccc(OCCCCCC(=O)O)cc1)[C@@H]1[C@@H]2CC[C@@]2(C)[C@H]1CC[C@]2(C)O	0.42	100	–	–	–	–
C[C@]12CCC(=O)C=C1C[C@@H](CCCCCCCCCC(=O)O)[C@@H]1[C@@H]2CC[C@@]2(C)[C@H]1CC[C@]2(C)O	2	> 10000	0.6	–	–	–
C[C@]12CCC(=O)C=C1C[C@@H](CCCCc1cccc(OCCCCCC(=O)O)c1)[C@@H]1[C@@H]2CC[C@@]2(C)[C@H]1CC[C@]2(C)O	0.53	> 10000	0.12	–	–	–
C[C@]12CCC(=O)C=C1C[C@@H](CCCCc1ccc(OCCCCC(=O)O)cc1)[C@@H]1[C@@H]2CC[C@@]2(C)[C@H]1CC[C@]2(C)O	0.25	2000	0.096	–	–	–
C[C@]12CCC(=O)C=C1C[C@@H](CCCc1ccc(OCCCCC(=O)O)cc1)[C@@H]1[C@@H]2CC[C@@]2(C)[C@H]1CC[C@]2(C)O	0.3	3200	0.66	–	–	–
C[C@]12CCC(=O)C=C1C[C@@H](CCCCc1ccc(OCCCC(=O)O)cc1)[C@@H]1[C@@H]2CC[C@@]2(C)[C@H]1CC[C@]2(C)O	0.85	170	–	–	–	–
C[C@]12CCC(=O)C=C1C[C@@H](CCCc1cccc(OCCCC(=O)O)c1)[C@@H]1[C@@H]2CC[C@@]2(C)[C@H]1CC[C@]2(C)O	5.8	1500	–	–	–	–
